The numbers were not newly measured in patent publication US11000594B2, “Composition comprising an organic liquid diluent and a cellulose ether of very low viscosity” (Dow Global Technologies LLC, priority 2012, dated 2021), which cites them from elsewhere.

Converted amounts (≈) assume the structure as drawn.

As to `COC1=CC(=O)C[C@@H](C)[C@]12Oc1c(Cl)c(OC)cc(OC)c1C2=O` [Griseofulvin], the water solubility is 8.54 mg/L (≈ 24.2 µM).
